Laboratory results from ChEMBL document CHEMBL4311976, “Design, synthesis and biological evaluation of novel 7H-pyrrolo[2,3-d]pyrimidine derivatives as potential FAK inhibitors and anticancer agents” (Eur J Med Chem, 2019).

Assays:
CYP3A4 = CYP3A4 (Homo sapiens, UniProt P08684); assay: Inhibition of CYP3A4 in human pooled liver microsomes at 10 uM using midazolam as substrate preincubated for 10 mins followed by NADPH addition and measured after 15 mins by LC/MS/MS analysis relative to control; type: ADME; settings: probe midazolam
Chain of CYP3A4 (P08684 whole entry): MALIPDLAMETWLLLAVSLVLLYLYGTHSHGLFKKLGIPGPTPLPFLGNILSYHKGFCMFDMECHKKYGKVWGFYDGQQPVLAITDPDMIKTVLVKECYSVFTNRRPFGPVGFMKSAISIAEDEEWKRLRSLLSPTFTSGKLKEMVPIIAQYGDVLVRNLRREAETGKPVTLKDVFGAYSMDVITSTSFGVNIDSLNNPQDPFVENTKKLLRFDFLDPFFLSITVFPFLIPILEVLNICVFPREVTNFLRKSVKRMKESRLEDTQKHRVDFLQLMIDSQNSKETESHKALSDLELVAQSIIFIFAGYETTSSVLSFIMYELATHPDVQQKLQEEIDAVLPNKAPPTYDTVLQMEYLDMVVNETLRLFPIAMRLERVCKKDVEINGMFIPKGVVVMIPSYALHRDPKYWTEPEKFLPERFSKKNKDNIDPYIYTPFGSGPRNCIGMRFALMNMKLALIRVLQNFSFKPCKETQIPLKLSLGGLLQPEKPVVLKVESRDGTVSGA

A549 [1] = assay: Induction of apoptosis in human A549 cells assessed as late apoptotic cells at 1 uM after 72 hrs by Annexin V-FITC/propidium iodide staining-based flow cytometric analysis (reference value: 1.24%); type: functional
[2] = target: ALK tyrosine kinase receptor (Homo sapiens) (UniProt Q9UM73); assay: Inhibition of recombinant human GST-tagged ALK (1058 to 1620 residues) expressed in baculovirus at 0.5 uM using tyr 01 as substrate as substrate in presence of ATP at Km concentration after 1 hr by Z'-LYTE assay relative to control
HK-2 = assay: cells; settings: Homo sapiens, HK-2, 72 h
Description: Cytotoxicity against human HK2 cells assessed as reduction in cell viability after 72 hrs by MTT assay

[3] = target: CDK2/Cyclin A2 (Homo sapiens) (UniProt P24941+P20248); assay: Inhibition of recombinant full-legth His-tagged human CDK2/CyclinA expressed in baculovirus expression system at 0.5 uM using Ser/Thr 12 as substrate in presence of ATP at Km concentration after 1 hr by Z'-LYTE assay relative to control
A549 [4] = assay: Induction of apoptosis in human A549 cells assessed as early apoptotic cells at 9 uM after 72 hrs by Annexin V-FITC/propidium iodide staining-based flow cytometric analysis (reference value: 2.40%); type: functional
A549 [5] = assay: Induction of apoptosis in human A549 cells assessed as viable cells at 3 uM after 72 hrs by Annexin V-FITC/propidium iodide staining-based flow cytometric analysis (reference value: 94.66%); type: functional; settings: A549, 72 h, read-out: Activity
[6] = target: Proto-oncogene tyrosine-protein kinase receptor Ret (Homo sapiens) (UniProt P07949); assay: Inhibition of recombinant GST-tagged human RET (658 to 1114 residues) expressed in baculovirus expression system at 0.5 uM using tyr 02 as substrate in presence of ATP at Km concentration after 1 hr by Z'-LYTE assay relative to control
Chain of Proto-oncogene tyrosine-protein kinase receptor Ret (Homo sapiens) (P07949 whole entry, the tested form may be a part): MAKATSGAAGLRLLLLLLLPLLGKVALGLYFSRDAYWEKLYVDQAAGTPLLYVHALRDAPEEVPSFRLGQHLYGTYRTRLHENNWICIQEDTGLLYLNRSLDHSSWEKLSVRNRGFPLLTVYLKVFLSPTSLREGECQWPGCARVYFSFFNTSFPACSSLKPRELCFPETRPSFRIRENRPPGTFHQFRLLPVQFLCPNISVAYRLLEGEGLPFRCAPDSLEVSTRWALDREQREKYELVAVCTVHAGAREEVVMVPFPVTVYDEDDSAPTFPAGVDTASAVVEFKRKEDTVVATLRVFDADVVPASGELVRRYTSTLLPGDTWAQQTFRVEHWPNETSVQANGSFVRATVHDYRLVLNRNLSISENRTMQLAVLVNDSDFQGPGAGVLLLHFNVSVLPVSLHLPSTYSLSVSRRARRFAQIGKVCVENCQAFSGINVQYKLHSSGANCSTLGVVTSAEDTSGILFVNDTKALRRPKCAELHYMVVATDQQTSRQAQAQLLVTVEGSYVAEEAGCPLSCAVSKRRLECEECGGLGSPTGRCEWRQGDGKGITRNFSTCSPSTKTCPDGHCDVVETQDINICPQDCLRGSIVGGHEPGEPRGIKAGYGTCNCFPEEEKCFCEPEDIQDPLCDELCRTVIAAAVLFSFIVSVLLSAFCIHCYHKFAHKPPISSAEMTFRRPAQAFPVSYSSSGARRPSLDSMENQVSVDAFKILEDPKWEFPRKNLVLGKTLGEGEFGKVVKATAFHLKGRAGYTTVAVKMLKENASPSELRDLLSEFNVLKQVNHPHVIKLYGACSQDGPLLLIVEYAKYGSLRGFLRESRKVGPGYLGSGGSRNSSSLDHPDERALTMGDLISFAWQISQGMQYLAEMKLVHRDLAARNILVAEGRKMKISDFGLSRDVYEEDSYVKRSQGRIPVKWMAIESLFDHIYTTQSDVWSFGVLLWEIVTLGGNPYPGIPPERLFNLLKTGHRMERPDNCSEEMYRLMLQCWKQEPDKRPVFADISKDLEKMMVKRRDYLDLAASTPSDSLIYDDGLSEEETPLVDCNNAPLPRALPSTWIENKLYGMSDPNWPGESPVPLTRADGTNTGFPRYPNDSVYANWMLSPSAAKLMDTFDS

CYP2C9 = CYP2C9 (Homo sapiens, UniProt P11712); assay: Inhibition of CYP2C9 in human pooled liver microsomes at 10 uM using diclofenac as substrate preincubated for 10 mins followed by NADPH addition and measured after 15 mins by LC/MS/MS analysis relative to control; type: ADME; settings: probe diclofenac
Chain of CYP2C9 (P11712 whole entry): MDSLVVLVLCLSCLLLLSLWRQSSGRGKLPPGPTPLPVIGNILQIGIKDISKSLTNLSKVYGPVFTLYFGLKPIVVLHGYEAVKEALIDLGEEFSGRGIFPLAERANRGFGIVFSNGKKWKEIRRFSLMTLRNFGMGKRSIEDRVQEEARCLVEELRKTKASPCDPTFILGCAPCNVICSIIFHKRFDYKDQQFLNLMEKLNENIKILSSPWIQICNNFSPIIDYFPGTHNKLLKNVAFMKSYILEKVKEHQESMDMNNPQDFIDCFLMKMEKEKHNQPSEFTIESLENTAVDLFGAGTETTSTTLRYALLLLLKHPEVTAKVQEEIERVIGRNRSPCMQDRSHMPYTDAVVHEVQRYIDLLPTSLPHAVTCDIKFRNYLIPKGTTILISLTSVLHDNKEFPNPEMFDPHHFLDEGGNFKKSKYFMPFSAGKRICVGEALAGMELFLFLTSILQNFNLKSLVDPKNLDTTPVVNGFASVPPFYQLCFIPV

[7] = Metabolic stability in mouse liver microsomes assessed as compound remaining at 1 uM measured up to 1 hr in absence of NADPH by LC-MS/MS analysis; type: ADME, Microsome; settings: read-out: Stability
[8] = target: RAC-alpha serine/threonine-protein kinase (Homo sapiens) (UniProt P31749); assay: Inhibition of recombinant full-legth His-tagged human AKT1 expressed in baculovirus expression system at 0.5 uM using Ser/Thr 06 as substrate in presence of ATP at Km concentration after 1 hr by Z'-LYTE assay relative to control
Chain of RAC-alpha serine/threonine-protein kinase (Homo sapiens) (P31749 whole entry): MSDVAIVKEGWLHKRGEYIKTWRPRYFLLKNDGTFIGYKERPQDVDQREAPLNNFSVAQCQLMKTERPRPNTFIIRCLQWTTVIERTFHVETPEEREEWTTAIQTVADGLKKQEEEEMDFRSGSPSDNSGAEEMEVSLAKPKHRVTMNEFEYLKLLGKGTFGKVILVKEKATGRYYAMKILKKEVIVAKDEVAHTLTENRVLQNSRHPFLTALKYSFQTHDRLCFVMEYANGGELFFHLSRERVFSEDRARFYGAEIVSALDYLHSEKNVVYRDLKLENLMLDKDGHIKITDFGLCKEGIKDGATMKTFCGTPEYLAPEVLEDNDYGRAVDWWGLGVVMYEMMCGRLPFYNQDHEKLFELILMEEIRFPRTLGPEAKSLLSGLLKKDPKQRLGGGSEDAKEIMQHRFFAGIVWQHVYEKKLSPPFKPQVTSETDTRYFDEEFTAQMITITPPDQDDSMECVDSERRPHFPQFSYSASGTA

[9] = Metabolic stability in human liver microsomes assessed as compound remaining at 1 uM measured up to 1 hr in presence of NADPH by LC-MS/MS analysis; type: ADME, Microsome; settings: read-out: Stability
[10] = target: Mast/stem cell growth factor receptor Kit (Homo sapiens) (UniProt P10721); assay: Inhibition of recombinant His-tagged human KIT (544 to 976 residues) expressed in baculovirus expression system at 0.5 uM using tyr 06 as substrate in presence of ATP at Km concentration after 1 hr by Z'-LYTE assay relative to control
A549 [11] = assay: Induction of apoptosis in human A549 cells assessed as necrotic cells at 9 uM after 72 hrs by Annexin V-FITC/propidium iodide staining-based flow cytometric analysis (reference value: 1.70%); type: functional
[12] = target: Serine/threonine-protein kinase pim-2 (Homo sapiens) (UniProt Q9P1W9); assay: Inhibition of recombinant full length GST-tagged human PIM2 expressed in baculovirus expression system at 0.5 uM using Ser/Thr 07 as substrate in presence of ATP at Km concentration after 1 hr by Z'-LYTE assay relative to control
A549 [13] = assay: Induction of apoptosis in human A549 cells assessed as viable cells at 1 uM after 72 hrs by Annexin V-FITC/propidium iodide staining-based flow cytometric analysis (reference value: 94.66%); type: functional; settings: A549, 72 h, read-out: Activity
CYP2C19 = CYP2C19 (Homo sapiens, UniProt P33261); assay: Inhibition of CYP2C19 in human pooled liver microsomes at 10 uM using S-mephenytoin as substrate preincubated for 10 mins followed by NADPH addition and measured after 15 mins by LC/MS/MS analysis relative to control; type: ADME; settings: probe S-mephenytoin
A549 [14] = assay: Induction of apoptosis in human A549 cells assessed as early apoptotic cells at 3 uM after 72 hrs by Annexin V-FITC/propidium iodide staining-based flow cytometric analysis (reference value: 2.40%); type: functional
[15] = Intrinsic clearance in mouse liver microsomes at 1 uM measured up to 1 hr in presence of NADPH by LC-MS/MS analysis; type: ADME, Microsome; settings: read-out: CLH
CYP1A2 = CYP1A2 (Homo sapiens, UniProt P05177); assay: Inhibition of CYP1A2 in human pooled liver microsomes at 10 uM using phenacetin as substrate preincubated for 10 mins followed by NADPH addition and measured after 15 mins by LC/MS/MS analysis relative to control; type: ADME; settings: probe phenacetin
[16] = Intrinsic clearance in rat liver at 1 uM measured up to 1 hr in presence of NADPH by LC-MS/MS analysis; type: ADME, tissue-based
[17] = target: Fibroblast growth factor receptor 1 (Homo sapiens) (UniProt P11362); assay: Inhibition of recombinant His-tagged human FGFR1 (308 to 731 resides) expressed in baculovirus expression system at 0.5 uM using tyr 04 as substrate in presence of ATP at Km concentration after 1 hr by Z'-LYTE assay relative to control
Focal adhesion kinase 1 = Focal adhesion kinase 1 (Homo sapiens, UniProt Q05397); assay: Inhibition of recombinant N-terminal GST-tagged human FAK (327 to 1052 residues) expressed in baculovirus expression system using TK as substrate incubated for 50 mins in presence of ATP and measured after 1 hr by HTRF assay
Chain of Focal adhesion kinase 1 (Q05397 whole entry, the tested form may be a part): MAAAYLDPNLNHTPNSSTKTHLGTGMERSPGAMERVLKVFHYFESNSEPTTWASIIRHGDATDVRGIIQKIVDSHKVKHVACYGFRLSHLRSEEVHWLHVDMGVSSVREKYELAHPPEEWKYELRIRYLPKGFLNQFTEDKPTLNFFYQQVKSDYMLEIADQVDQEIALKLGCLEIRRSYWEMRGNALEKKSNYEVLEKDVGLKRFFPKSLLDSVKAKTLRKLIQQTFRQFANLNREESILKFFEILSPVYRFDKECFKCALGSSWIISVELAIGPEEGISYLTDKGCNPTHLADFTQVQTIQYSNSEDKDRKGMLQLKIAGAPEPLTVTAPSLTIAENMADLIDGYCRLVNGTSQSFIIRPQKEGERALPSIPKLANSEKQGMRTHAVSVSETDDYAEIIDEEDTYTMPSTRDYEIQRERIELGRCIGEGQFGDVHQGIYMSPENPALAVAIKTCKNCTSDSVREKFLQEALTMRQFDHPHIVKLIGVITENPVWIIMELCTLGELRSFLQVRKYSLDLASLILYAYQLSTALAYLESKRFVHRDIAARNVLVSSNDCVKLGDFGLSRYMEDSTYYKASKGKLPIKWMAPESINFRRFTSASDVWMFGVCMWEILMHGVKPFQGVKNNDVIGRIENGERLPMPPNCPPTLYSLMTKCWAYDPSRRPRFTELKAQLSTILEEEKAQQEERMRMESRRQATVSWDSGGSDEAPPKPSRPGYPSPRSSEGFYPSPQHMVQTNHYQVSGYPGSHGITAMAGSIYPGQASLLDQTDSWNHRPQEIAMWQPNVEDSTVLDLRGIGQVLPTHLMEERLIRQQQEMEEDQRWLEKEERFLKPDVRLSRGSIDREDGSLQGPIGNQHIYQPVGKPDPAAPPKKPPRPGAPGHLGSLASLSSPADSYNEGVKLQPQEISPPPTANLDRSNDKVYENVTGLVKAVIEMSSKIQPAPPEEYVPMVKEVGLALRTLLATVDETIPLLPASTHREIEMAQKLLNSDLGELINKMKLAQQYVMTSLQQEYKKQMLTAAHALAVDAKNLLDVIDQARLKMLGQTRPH

[18] = target: Serine/threonine-protein kinase B-raf (Homo sapiens) (UniProt P15056); assay: Inhibition of full length GST-tagged human BRAF expressed in baculovirus expression system at 0.5 uM using Ser/Thr 03 as substrate in presence of 100 uM ATP after 1 hr by Z'-LYTE assay relative to control
[19] = target: Vascular endothelial growth factor receptor 2 (Homo sapiens) (UniProt P35968); assay: Inhibition of recombinant His-tagged human KDR cytoplasmic domain (789 to 1356 residues) expressed in baculovirus expression system at 0.5 uM using tyr 01 as substrate in presence of ATP at Km concentration after 1 hr by Z'-LYTE assay relative to control
Chain of Vascular endothelial growth factor receptor 2 (Homo sapiens) (P35968 whole entry, the tested form may be a part): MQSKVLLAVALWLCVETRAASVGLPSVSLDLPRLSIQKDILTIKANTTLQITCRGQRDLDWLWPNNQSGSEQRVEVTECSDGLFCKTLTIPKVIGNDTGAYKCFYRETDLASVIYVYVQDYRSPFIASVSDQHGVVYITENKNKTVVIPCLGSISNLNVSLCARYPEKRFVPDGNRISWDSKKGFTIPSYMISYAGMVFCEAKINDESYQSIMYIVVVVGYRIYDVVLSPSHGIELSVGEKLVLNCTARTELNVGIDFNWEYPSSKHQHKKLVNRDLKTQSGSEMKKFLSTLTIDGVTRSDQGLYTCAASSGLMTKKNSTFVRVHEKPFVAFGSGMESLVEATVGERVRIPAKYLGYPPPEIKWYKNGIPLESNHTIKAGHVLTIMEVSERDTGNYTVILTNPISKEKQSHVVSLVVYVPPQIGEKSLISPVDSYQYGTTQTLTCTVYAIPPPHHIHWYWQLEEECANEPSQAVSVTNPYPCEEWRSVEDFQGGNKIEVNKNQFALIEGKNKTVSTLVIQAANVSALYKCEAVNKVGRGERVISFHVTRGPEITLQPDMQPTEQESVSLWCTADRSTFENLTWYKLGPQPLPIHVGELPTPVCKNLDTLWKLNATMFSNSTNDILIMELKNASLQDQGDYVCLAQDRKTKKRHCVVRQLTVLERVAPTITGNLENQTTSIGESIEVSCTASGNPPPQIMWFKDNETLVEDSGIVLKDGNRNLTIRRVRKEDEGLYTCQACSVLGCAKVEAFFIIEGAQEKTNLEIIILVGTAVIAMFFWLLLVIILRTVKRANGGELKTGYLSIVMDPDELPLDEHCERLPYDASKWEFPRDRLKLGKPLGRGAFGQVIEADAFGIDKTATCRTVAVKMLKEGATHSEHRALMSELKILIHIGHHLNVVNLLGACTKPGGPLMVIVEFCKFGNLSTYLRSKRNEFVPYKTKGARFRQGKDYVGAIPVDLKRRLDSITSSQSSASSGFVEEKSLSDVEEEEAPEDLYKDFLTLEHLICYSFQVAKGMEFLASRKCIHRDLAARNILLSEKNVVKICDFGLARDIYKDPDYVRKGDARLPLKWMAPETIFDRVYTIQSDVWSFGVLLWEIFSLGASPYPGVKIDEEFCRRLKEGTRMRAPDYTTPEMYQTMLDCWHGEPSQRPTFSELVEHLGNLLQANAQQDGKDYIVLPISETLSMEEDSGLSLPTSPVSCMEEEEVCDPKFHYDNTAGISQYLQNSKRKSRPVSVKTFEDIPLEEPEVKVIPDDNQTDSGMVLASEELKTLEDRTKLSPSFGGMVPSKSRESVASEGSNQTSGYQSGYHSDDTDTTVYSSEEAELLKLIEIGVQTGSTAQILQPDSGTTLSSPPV

[20] = Metabolic stability in rat liver microsomes assessed as compound remaining at 1 uM measured up to 1 hr in presence of NADPH by LC-MS/MS analysis; type: ADME, Microsome; settings: read-out: Stability

SMILES: COc1cc(C(=O)NC2CCNCC2)ccc1Nc1nc(Nc2ccccc2P(C)(C)=O)c2cc[nH]c2n1
- inhibition at 0.25 h, 10 µM (CYP3A4): 10.5%
- Activity (A549 [1]): 9.62%
- inhibition [2]: 98%
- IC50 (HK-2): > 25000 nM
- inhibition [3]: 1%
- Activity (A549 [4]): 30.12%
- viability at 3 µM (A549 [5]): 52.9%
- inhibition [6]: 10%
- inhibition at 0.25 h, 10 µM (CYP2C9): 11.5%
- remaining at 1 h, 1 µM [7]: 78%
- inhibition [8]: 0%
- remaining at 1 h, 1 µM [9]: 67.9%
- inhibition [10]: 2%
- Activity (A549 [11]): 4.15%
- inhibition [12]: -3%
- viability at 1 µM (A549 [13]): 70.7%
- inhibition at 0.25 h, 10 µM (CYP2C19): 4.9%
- Activity (A549 [14]): 17.3%
- microsomal CLint at 1 µM [15]: 10.1 µL/min/mg
- inhibition at 0.25 h, 10 µM (CYP1A2): 1.5%
- CLH [16]: < 17.3 mL/min/kg
- inhibition [17]: 6%
- IC50 (Focal adhesion kinase 1): 5.4 nM
- inhibition [18]: 3%
- inhibition [19]: 1%
- remaining at 1 h, 1 µM [20]: 80.7%
